The target in the experiment is T1, Fn14-TWEAK binding (Homo sapiens, UniProt Q9NP84).
T1 construct: the human Fc fragment-tagged Fn14 extracellular domain (R&D Systems) was captured; purchased R&D Systems (Fn14-Fc); Peprotech (recombinant TWEAK)
T1 sequence (Q9NP84 28-80 limits assumed): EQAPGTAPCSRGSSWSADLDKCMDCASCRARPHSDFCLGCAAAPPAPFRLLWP
Nature of the experiment: Double sandwich ELISA small molecule screening of TWEAK binding to captured Fn14-Fc. As to the method: Double Sandwich ELISA. sTWEAK and sTWEAK variant proteins were synthesized as described above. The expression level of each IVTT synthesized sTWEAK protein was analyzed by western blot analysis and used in approximately equal amounts in the ELISA. To assay the binding of wild type sTWEAK and sTWEAK variants to Fn14, the human Fc fragment-tagged Fn14 extracellular domain (R&D Systems) was captured in an Immuno 96-microwell white plate by adding 100 μL of 0.025 μg/mL Fn14-Fc to wells coated with goat anti-human Fcγ fragment specific monoclonal antibody. After capture, the wells were washed 3× with Dulbecco's Phosphate Buffered Saline (DPBS) containing 0.05% Tween-20. Unbound sites were blocked by addition of 100 μL of blocking solution containing 0.05% Tween-20, 1% BSA, and 3% normal goat serum (NGS) in DPBS for 1 hr at room temperature. 0.01 μL of sTWEAK or sTWEAK variant made with the human IVTT kit or 2 μL of sTWEAK or sTWEAK variant made with the rabbit IVTT kit was diluted in 100 μL of sample diluent (DPBS+1% BSA+0.005% Tween-20) and then added to the wells for 2 hr followed by addition of 100 μL of 50 ng/mL biotinylated TWEAK detection antibody (R&D Systems) in sample diluent. Following incubation for additional 2 hr at room temperature, wells were washed 3× with DPBS containing 0.05% Tween-20 and bound biotinylated TWEAK antibody was detected by incubation with an HRP-conjugated streptavidin. The total luminescent signal was obtained using Femto ELISA kit (Pierce Biochemical) and compared to the standard curve signal obtained from the binding of 0-4000 pg/mL recombinant TWEAK (Peprotech inc) to Fn14-Fc. Using 5-parameter logistic curve fitting for standard curve analysis (Sigmaplot 11.0, SyStat Software Inc.), binding of sTWEAK or TWEAK variant to Fn14-Fc was determined. The data represents that observed for at least four replicate assays.
The small molecule screening was performed using the ELISA assay described above with minor modifications. Briefly, after capturing Fn14-Fc in the microwell plate, 80 μl of drug solution in sample diluent was added to desired wells and incubated for 2 hrs at room temperature. Subsequently, 20 μL of 2500 pg/mL (5×) TWEAK was added to each well to achieve final TWEAK concentration of 500 pg/mL and incubated for additional 2 hr at room temperature. Bound TWEAK was detected as described in the protocol above. All small molecule inhibitors were screened at 25 μM final concentration (final DMSO concentration of 0.125%) in duplicate. Cyclohexamide, a non-specific small molecule, at 25 μM concentration was used as negative control. The anti-Fn14 antibody ITEM-4, added at 2.5 μg/mL, was used as a positive control for complete blockade of TWEAK binding. Reduction in TWEAK binding due to compound addition or controls was calculated by using standard curve (Separate standard curve was obtained for every screening plate).
(In general: An ELISA detects its analyte on a solid surface through an enzyme-linked reagent.)

[1] abbreviates: Table 3, first round of screening, 25 μM, average of duplicate, read-out: % Reduction in TWEAK Binding, Average.
Setting [2] is: Table 3, first round of screening, 25 μM, replicate 1, read-out: % Reduction in TWEAK Binding, Data 1.
Where [3] appears, read: Table 3, first round of screening, 25 μM, replicate 2, read-out: % Reduction in TWEAK Binding, Data 2.
The mark [4] stands for this setting: Table 5, 25 μM, average of duplicate, read-out: % Reduction in TWEAK Binding, Average.
Setting [5] is: Table 5, 25 μM, replicate 1, read-out: % Reduction in TWEAK Binding, Data 1.
Setting [6] is: Table 5, 25 μM, replicate 2, read-out: % Reduction in TWEAK Binding, Data 2.
[7] abbreviates: Table 4, second screening iteration, 25 μM, average of duplicate, read-out: % Reduction in TWEAK Binding, Average.
Where [8] appears, read: Table 4, second screening iteration, 25 μM, replicate 1, read-out: % Reduction in TWEAK Binding, Data 1.
The mark [9] stands for this setting: Table 4, second screening iteration, 25 μM, replicate 2, read-out: % Reduction in TWEAK Binding, Data 2.
Setting [10] is: first round of screening, 25 μM, read-out: average inhibition in TWEAK-Fn14 binding.
Where [11] appears, read: second screening iteration, 25 μM, average, read-out: inhibition of TWEAK binding to Fn14.

Structures are written as SMILES. Like-named read-outs stand apart in the source and are kept apart here. Bounds are passed on as bounds.

As to `O=C(NCc1cccnc1)C(=O)NCc1n[nH]c(=O)c2ccccc12` [Compound F044-0083], the inhibition at 25 µM is, setting by setting: under setting [1], 11%; under setting [2], 11.1%; under setting [3], 10.8%; under setting [4], 11%; under setting [5], 11.1%; under setting [6], 10.8%.
As to `CCCSc1nnc(-c2ccccc2NC(=O)CC)c(O)n1` [Compound 5511-0142], the inhibition at 25 µM stood at 10.5% under setting [7]; 7.2% under setting [8]; 13.8% under setting [9]; 10.5% under setting [4]; 7.2% under setting [5]; 13.8% under setting [6].
Turning to `O=C(CSc1nc2c(cnn2-c2ccccc2)c(=O)[nH]1)NCc1ccc2c(c1)OCO2` [Compound G873-0032], the inhibition at 25 µM amounted to 20.4% under setting [1]; 26.3% under setting [2]; 14.5% under setting [3]; 20.4% under setting [4]; 26.3% under setting [5]; 14.5% under setting [6]. Further, under setting [10], the inhibition at 25 µM was over 15%.
As for `O=C(CSc1ccccc1)Nc1cccc2nsnc12` [Compound F281-0079], the inhibition at 25 µM under setting [7] was found to be 14.6%; the inhibition at 25 µM under setting [8] worked out at 15.5%; the inhibition at 25 µM under setting [9] is 13.7%; the inhibition at 25 µM under setting [4] is 14.6%; the inhibition at 25 µM under setting [5] is 15.5%; the inhibition at 25 µM under setting [6] was 13.7%.
With `O=C(CSc1nnc(-c2ccccc2)c(-c2ccccc2)n1)Nc1ccc(S(=O)(=O)Nc2nccs2)cc1` [Compound 4981-0539], the inhibition at 25 µM was determined as 11.7% under setting [7]; 11.3% under setting [8]; 12.2% under setting [9]; 11.7% under setting [4]; 11.3% under setting [5]; 12.2% under setting [6].
As for `COc1cccc(NC(=O)CSc2nnc(-c3ccc(F)cc3)c(-c3ccc(F)cc3)n2)c1` [Compound K216-0906], the inhibition at 25 µM runs as follows: under setting [7], 16.6%; under setting [8], 17.2%; under setting [9], 16%; under setting [4], 16.6%; under setting [5], 17.2%; under setting [6], 16%.
Turning to `Cc1cccc(-n2c(=O)c3[nH]c4ccccc4sc=3c2=O)c1` [Compound 8211-0292], the inhibition at 25 µM under setting [7] is 36.7%; the inhibition at 25 µM under setting [8] is 35.6%; the inhibition at 25 µM under setting [9] was determined as 37.8%; the inhibition at 25 µM under setting [4] was 36.7%; the inhibition at 25 µM under setting [5] stood at 35.6%; the inhibition at 25 µM under setting [6] stood at 37.8%. Also, under setting [11], the inhibition at 25 µM was determined as 36.7%.
As to `CCCC(=O)Nc1ccccc1-c1nnc(SC)nc1O` [Compound 7033-0155], the inhibition at 25 µM turned out to be 20.2% under setting [7]; 19.5% under setting [8]; 20.9% under setting [9]; 20.2% under setting [4]; 19.5% under setting [5]; 20.9% under setting [6].
Regarding `O=C(NCc1ccc(F)cc1)C1CCCN(c2nc3c(-c4ccccc4)csc3c(=O)[nH]2)C1` (stereo not shown), the inhibition at 25 µM by setting is: under setting [4], 22%; under setting [5], 28.1%; under setting [6], 15.9%.
As for `COc1cccc(NC(=O)CSc2nnc(-c3ccc(Cl)cc3)c(-c3ccc(Cl)cc3)n2)c1` [Compound K216-0957], the inhibition at 25 µM is, setting by setting: under setting [7], 24%; under setting [8], 23.8%; under setting [9], 24.3%; under setting [4], 24%; under setting [5], 23.8%; under setting [6], 24.3%.
Take `COc1ccc(-c2nnc(SCC(=O)Nc3ccccc3OC)nc2-c2ccc(OC)cc2)cc1` [Compound 3809-1067]: the inhibition at 25 µM turned out to be 32.1% under setting [7]; 34.5% under setting [8]; 29.8% under setting [9]; 32.1% under setting [4]; 34.5% under setting [5]; 29.8% under setting [6]. The inhibition at 25 µM under setting [11] was 32.1%.
As to `Cc1cc(NC(=O)CSc2ccccc2)ccc1Cl` [Compound 1068-0114], the inhibition at 25 µM amounted to 13.4% under setting [7]; 21.9% under setting [8]; 4.93% under setting [9]; 13.4% under setting [4]; 21.9% under setting [5]; 4.93% under setting [6].
`CCS(=O)(=O)c1ccc(OCc2cc(=O)n3oc(C)cc3n2)c(NC(=O)COc2ccccc2C)c1`: the inhibition at 25 µM came out at 19.6% under setting [4], 22.2% under setting [5] and 17.1% under setting [6].
`O=C(CSc1nnc(-c2ccccc2)c(-c2ccccc2)n1)Nc1ccccc1Cl` [Compound K784-2269]: the “% Reduction in TWEAK Binding, Average” value (Table 4, second screening iteration, 25 μM, average of duplicate) was determined as 9.52%. For the same molecule, the “% Reduction in TWEAK Binding, Data 1” value (Table 4, second screening iteration, 25 μM, replicate 1) is given as 10.8055%. Moreover, the “% Reduction in TWEAK Binding, Data 2” value (Table 4, second screening iteration, 25 μM, replicate 2) is reported as 8.234%.
`O=C(CSc1cccc2cccnc12)Nc1ccc2ccccc2c1` [Compound 4084-0026]: the inhibition at 25 µM is, setting by setting: under setting [7], 11.1%; under setting [8], 15.3%; under setting [9], 6.85%; under setting [4], 11.1%; under setting [5], 15.3%; under setting [6], 6.85%.
On to `Cc1ccc(-c2csc3c(=O)[nH]c(N4CCCC(C(N)=O)C4)nc23)cc1` (stereo not shown) [Compound Z250-1348], for which the inhibition at 25 µM runs as follows: under setting [1], 13.3%; under setting [2], 16.6%; under setting [3], 9.99%; under setting [4], 13.3%; under setting [5], 16.6%; under setting [6], 9.99%.
On to `NC(=O)C1CCCN(c2nc3c(-c4ccccc4)csc3c(=O)[nH]2)C1` (stereo not shown) [Compound Z250-1266], for which the inhibition at 25 µM amounted to 11.8% under setting [1]; 16.2% under setting [2]; 7.41% under setting [3]; 11.8% under setting [4]; 16.2% under setting [5]; 7.41% under setting [6].
With `O=C(NCc1ccc(F)cc1)C(=O)NCc1n[nH]c(=O)c2ccccc12` [Compound F044-0077], the inhibition at 25 µM turned out to be 11.5% under setting [1]; 12.6% under setting [2]; 10.4% under setting [3]; 11.5% under setting [4]; 12.6% under setting [5]; 10.4% under setting [6].
For `CCC(=O)Nc1ccccc1-c1nnc(SC(CC)C(=O)Nc2cc(OC)cc(OC)c2)[nH]c1=O` (stereo not shown) [Compound F151-0435], the inhibition at 25 µM under setting [1] is 15.5%; the inhibition at 25 µM under setting [2] is 18.9%; the inhibition at 25 µM under setting [3] was found to be 12.2%; the inhibition at 25 µM under setting [4] stood at 15.5%; the inhibition at 25 µM under setting [5] was 18.9%; the inhibition at 25 µM under setting [6] came to 12.2%. In addition, under setting [10], the inhibition at 25 µM was over 15%.
On to `COc1ccc(-c2nnc(SCC(=O)Nc3cccc4ccccc34)nc2-c2ccccc2)cc1` [Compound 8014-3315], for which the inhibition at 25 µM is, setting by setting: under setting [7], 15.7%; under setting [8], 18.6%; under setting [9], 12.7%; under setting [4], 15.7%; under setting [5], 18.6%; under setting [6], 12.7%.

The record behind these values is US9238034B2, “FN14 antagonists and therapeutic uses thereof” (THE TRANSLATIONAL GENOMICS RESEARCH INSTITUTE, priority 2013, dated 2016).
